Experimental data from patent publication US20060025483A1, “(-)-Hydroxycitric acid for protection against soft tissue and arterial calcification” (priority 2004, published 2006).

Assays:
[1] = test system: systolic blood pressure; test: systolic blood pressure (SBP) by tail plethysmography, rats on 30% fat / sucrose diet; assay type: in vivo, Sprague-Dawley Rats; settings: for lowering of SBP: end of 8 weeks
Description: (§1) A known effect of ACE inhibitors is a reduction in elevated systolic blood pressure. To test this, the following protocol was employed: Sprague-Dawley Rats (SD), approximately 8 weeks of age were obtained. Six groups of eight male SD received the same standard rat chow manufactured to specifications. The special diets derived 30% of calories from fats (one half from lard and one half from corn oil), 50% from carbohydrates, and 20% from proteins. Twenty percent of dietary calories was derived from sucrose and the preponderance of the remaining carbohydrate calories was derived from dextrin. During weekdays (M-F), each group was gavaged twice daily with a solution containing a commercial source of potassium hydroxycitrate (KHCA), a commercial source of potassium-calcium hydroxycitrate (KCaHCA), or a pre-commercial non-salt source of potassium-magnesium hydroxycitrate (KMgHCA, listed as KMgHCA L-Low, M-Intermediate or H-High depending upon the dose). Over the weekends (S-S), a similar quantity of the weekday daily dose was added to twenty grams of food, that is, an amount of food estimated to be close to the daily intake of the animals. At initiation of study and four weeks, and eight weeks later, bloods were drawn from all SD for routine blood chemistries. Body weight (BW) was measured weekly and systolic blood pressure (SBP) was measured every two weeks.
The HCA dosages in the arms varied. The dosage used in the KHCA arm was extrapolated from the recommended 1,500 mg HCA per day for humans consuming a normal diet (i.e., ≧30% calories derived from fats) advocated by a commercial seller of KHCA and claimed to have produced acceptable clinical results. The approximate equivalent for the rat model is 35.4 mg HCA per day, which we increased to 38.4 mg HCA per day for convenience in employing a 48% HCA potassium salt and to remain safely on the high side in practice. For the sake of comparison, a commercial KCaHCA salt (60% HCA) was chosen and delivered at an HCA dosage level of 48 mg per day, which slightly exceeded the lowest dosage of HCA found to be efficacious for inhibition of weight gain in rats in the early pharmaceutical trials (45.4 mg/day) using pure trisodium hydroxycitrate and a very low fat diet. The design thus utilized a realistic diet with rough equivalents of the HCA dosages claimed to be effective in both the human and rat models.
The experimental KMgHCA dosings varied considerably from that of the other two salts. […] As a result, the recalculated HCA doses for the experimental compound were a low dose (KMgHCA L) of 14 mg, an intermediate dose (KMgHCA M) of 28 mg and a high dose (KMgHCA H) of 84 mg per day. The difficulty in calculating the HCA content in this case is not unique inasmuch as there is as of yet no universally accepted method for calculating the HCA content of the various salts. Again, preparations yielded the equivalent of 48 mg HCA per day from KCaHCA and 38.4 mg HCA per day from KHCA.
(§2) Systolic Blood Pressure (SBP): SBP was estimated by tail plethysmography in unanesthetized rats after a brief warming period. Readings were taken approximately one minute apart. To be accepted, SBP measurements had to be virtually stable for a minimum of three consecutive readings.
(§3) Statistical Analyses: Results are presented as mean±SEM. Many statistics were performed by one-way analysis of variance (ANOVA). SBP and BW were examined by two-way analyses of variance (one factor being dietary group and the second factor being time of examination). Where a significant effect of diet was detected by ANOVA (p<0.05), the Dunnett t test was used to establish which differences between means reached statistical significance (p<0.05). If a Student's t test was employed, this is noted.

[2] = test system: insulin; test: circulating insulin concentrations; assay type: in vivo, Sprague-Dawley Rats; settings: for average insulin concentrations vs control: not significant using ANOVA
Description: as §1, §3

[3] = test system: C-reactive protein; test: serum C-reactive protein, rats on 30% fat / simple sugar diet; assay type: in vivo; design: key to CRP Modulation: ** = significant; settings: for Δ OD units after 4 wks: serum CRP, 1 unit equals 50 picograms/mL
Description: (§4) To test the properties of HCA in various forms under conditions similar to those found in human clinical trials, the inventor arranged for rats to be fed a diet in which 30% of the calories were obtained from fat under standard conditions, with a further approximately 20% of the calories being supplied as simple sugars. Such a dietary combination of fat and simple sugars is noted as promoting a variety of metabolic imbalances and dysfunctions. The rats were intubated twice daily with one of five HCA salts or placebo. On weekends, the HCA was added to the food at an approprate dosage. The amount of HCA in each arm of 8 animals was based on the minimum dosage which had been found effective in the form of the pure trisodium salt of HCA in tests by Hoffmann-La Roche in animals ingesting a 70% glucose diet, i.e., 0.33 mmoles/kg body weight HCA given twice per day. The HCA salts used were these: KCaHCA=a mixed potassium and calcium or double metal HCA salt commercially marketed as being entirely water soluble and of relatively high purity; KHCA=a relatively clean commercial potassium salt of HCA with a good mineral ligand attachment supplying 4467 mg potassium/100 grams of material; KMgHCA=three different dosage levels of an experimental potassium and magnesium salt with special characteristics, but suspected of being relatively unstable when exposed to stomach acid. The KCaHCA and KHCA salts were 60% HCA delivered at the rate of approximately 76 mg/day. The KMgHCA salts were delivered at the rate of 76 mg/day (r), 38 mg/day (l) and 228 mg/day (h), but due to initial miscalculations of the water of crystallization, this salt was only 45% HCA rather than 60%. The proper dosage for the KMgHCA(r) should have been 100 mg/day; the half dose (I) should have been 50 mg/day, and the triple dose (h) should have been 300 mg/day to match the commercial salts.
Tests were performed for C-reactive protein. Data was obtained for the animals at start and then at week 4 based on serum. Optical Density (OD) readings in the test kit used were 1 unit equals 50 picograms/mL. The delta changes over the 4 weeks for each arm vs control are shown.

[4] = body weight in the C-reactive protein study; assay type: in vivo, rats; settings: by week 6; salt 76 mg/day
Description: as §4, with “The KCaHCA and KHCA salts were 60% HCA delivered at the rate of approximately 76 mg/day. The KMgHCA salts were delivered at the rate of 76 mg/day (r), 38 mg/day (l) and 228 mg/day (h), but due to initial miscalculations of the water of crystallization, this salt was only 45% HCA rather than 60%. The proper dosage for the KMgHCA(r) should have been 100 mg/day; the half dose (I) should have been 50 mg/day, and the triple dose (h) should have been 300 mg/day to match the commercial salts.” left out

[5] = test system: ACE system; test: response of SBP to losartan challenge; assay type: in vivo, Spontaneously hypertensive rats (SHR); settings: at 6 hours; control SHR without HCA
Description: Many factors can positively influence blood pressure, e.g., diuretics, antioxidants, regulators of sympathetic/parasympathetic tone, compounds that improve insulin sensitivity and so forth. Therefore, losartan, an angiotensin-2 receptor blocker, was utilized to discover whether the ACE system was involved in the results discussed in Example 1.
(§5) Spontaneously hypertensive rats (SHR) were placed on a diet composed of regular rat chow (60% w/w) and table sugar (40% w/w). This diet reliably elevates blood pressure in this animal model. One group received 100 mg HCA per day in the form of a new potassium-magnesium hydroxycitrate (different from that used in Example 1) via an added 5 g HCA per kg of food mix. Systolic blood pressure and body weight were tested as in Example 1 on a weekly basis.
When losartan was injected, the SBP of both groups decreased. At 6 hours, the SBP were essentially the same. […] Thus, HCA appears to decrease angiotensin-2 in rats and to lower elevated SBP. Although insulin regulation likely is a factor in the blood pressure modulating effect of HCA, this evidence argues that inhibition of ACE is also important. […]

[6] = rats; diet of 70% glucose and 1% fat; cited from earlier work
[7] = test system: systolic blood pressure; test: SBP in SHR on rat chow / table sugar diet; assay type: in vivo, Spontaneously hypertensive rats (SHR); settings: 100 mg HCA per day in food; over three weeks
Method: as §2, §5

[8] = body weight in SHR on rat chow / table sugar diet; assay type: in vivo, Spontaneously hypertensive rats (SHR); settings: 100 mg HCA per day in food; over three weeks
Method: as §5

[9] = glucose tolerance test with 0.1 unit regular insulin injected along with glucose; assay type: in vivo, Spontaneously hypertensive rats (SHR); settings: at 7.5 minutes; 100 mg HCA per day in food
Method: This was viewed as likely positive in that rats gain weight steadily as long as they remain in good health and the SHR at middle age, as used here, lives a relatively short life and its health deteriorates as its blood pressure rises. […] A glucose tolerance test was administered in which 0.1 unit of regular insulin was injected along with glucose. […] This finding indicates increased insulin sensitivity. (FIG. 6)

[10] = test system: TNF-α; test: TNF-α, rats on 30% fat / simple sugar diet; assay type: in vivo; settings: eight weeks
Description: as §4, with “The KCaHCA and KHCA salts were 60% HCA delivered at the rate of approximately 76 mg/day. The KMgHCA salts were delivered at the rate of 76 mg/day (r), 38 mg/day (l) and 228 mg/day (h), but due to initial miscalculations of the water of crystallization, this salt was only 45% HCA rather than 60%. The proper dosage for the KMgHCA(r) should have been 100 mg/day; the half dose (I) should have been 50 mg/day, and the triple dose (h) should have been 300 mg/day to match the commercial salts.” left out

[11] = test system: systolic blood pressure; test: earlier study of SBP not described here; assay type: in vivo; settings: 120 mg HCA per day
[12] = pilot open clinical weight loss trial with extremely obese patients; assay type: in vivo, human
Description: A multi-week pilot open clinical weight loss trial with extremely obese patients was planned to gauge the effects of a pouch delivery form of a potassium salt of (−)-hydroxycitrate under the normal circumstances faced in clinical practice with this patient population. Fourteen patients were enrolled, three of whom were diabetics on medications and several others who were suspected of suffering from insulin resistance. The patients ingested 3-4 grams of HCA per day in two divided doses. Aside from being informed that they must eat a carbohydrate-containing meal within one hour of taking the HCA and that they should avoid eating late in the day, they were not instructed to follow any special diet or exercise plan outside their normal habits and no caloric restriction was imposed. This particular form of potassium (−)-hydroxycitrate delivery typically was mixed into water or juice and consumed at mid-morning and mid-afternoon. The delivery was a water-soluble immediate release form. […] A number of patients continued on the program for 6 weeks. However, comparative data was good for only 3 weeks because two of the diagnosed diabetics experienced hypoglycemic reactions. Several other patients experienced good appetite suppression, yet also complained off episodic tiredness at the beginning of the program, a sign of low blood sugar. Two patients subsequently were placed on phentermine. […] The average weight loss over the 3 week period for these patients was approximately 3 pounds per person per week. […] At therapeutically effective dosages, HCA probably should be used with diabetic populations only under a physician's care.

SMILES: O=C([O-])CC(O)(C(=O)[O-])C(O)C(=O)[O-].[K+].[K+].[K+] (stereo not drawn) [KHCA, potassium hydroxycitrate]
- SBP compared to control ([1]; end of eight weeks, 38.4 mg HCA per day): significant decreases in SBP compared to control
- insulin, control versus arm alone, Student's t test ([2]; 38.4 mg HCA per day): showed significance
- average insulin concentrations vs control ([2]; 38.4 mg HCA per day): lower
- CRP Modulation ([3]; 4 wks, salt 76 mg/day): **
- Δ OD units after 4 wks ([3]; salt 76 mg/day): −155 OD units
- body weight, trend difference from control [4]: greatest trend differences

SMILES: CCCCc1nc(Cl)c(CO)n1Cc1ccc(-c2ccccc2-c2nn[nH]n2)cc1 [losartan, reference compound]
- decrease in SBP after losartan injection [5]: −50±6.1

SMILES: O=C([O-])CC(O)(C(=O)[O-])C(O)C(=O)[O-].[Na+].[Na+].[Na+] (stereo not drawn) [trisodium hydroxycitrate]
- lowest dose shown to be efficacious in reducing weight gain [6]: 0.33 mmol/kg twice a day

SMILES: O=C([O-])CC(O)(C(=O)[O-])C(O)C(=O)[O-].[K+].[Mg+2] (stereo not drawn) [KMgHCA, potassium-magnesium hydroxycitrate]
- SBP compared to control ([1]; course of study, low dose 14 mg HCA per day): below the threshold for effect
- lowering of SBP ([1]; high dose 84 mg HCA per day): over 10 mm Hg
- lowering of SBP ([1]; intermediate dose 28 mg HCA per day): over 10 mm Hg
- SBP compared to control ([1]; end of eight weeks, high dose 84 mg HCA per day): significant decreases in SBP compared to control
- SBP compared to control ([1]; end of eight weeks, intermediate dose 28 mg HCA per day): significant decreases in SBP compared to control
- insulin, control versus arm alone, Student's t test ([2]; 84 mg HCA per day): at the margin of significance
- average insulin concentrations vs control ([2]; all KMgHCA groups (14, 28, 84 mg HCA per day)): lower
- SBP change from baseline [7]: decrease in SBP from baseline
- body weight [8]: trend for an increase in body weight
- rise in glucose appearance in bloodstream [9]: significantly lesser rise in glucose appearance in bloodstream
- CRP Modulation ([3]; 4 wks, salt 38 mg/day): **
- CRP Modulation ([3]; 4 wks, salt 76 mg/day): **
- CRP Modulation ([3]; 4 wks, salt 228 mg/day): **
- Δ OD units after 4 wks ([3]; salt 38 mg/day): 33 OD units
- Δ OD units after 4 wks ([3]; salt 76 mg/day): −145 OD units
- Δ OD units after 4 wks ([3]; salt 228 mg/day): −11.3 OD units
- TNF-α, simple t test versus control ([10]; intermediate dose): significance
- TNF-α, simple t test versus control ([10]; low dose): significance

SMILES: O=C([O-])CC(O)(C(=O)[O-])C(O)C(=O)[O-].[Ca+2].[K+] (stereo not drawn) [KCaHCA, potassium-calcium hydroxycitrate]
- SBP compared to control ([1]; end of eight weeks, 48 mg HCA per day): significant decreases in SBP compared to control
- trend of circulating insulin ([2]; 48 mg HCA per day): did not show a trend toward lower circulating insulin
- SBP [11]: decrease in SBP
- change in CRP compared with control, significance ([3]; 4 wks, salt 76 mg/day): failed to yield significant results
- Δ OD units after 4 wks ([3]; salt 76 mg/day): 56 OD units
- body weight, trend difference from control [4]: greatest trend differences

SMILES: O=C([O-])CC(O)(C(=O)[O-])C(O)C(=O)[O-].[K+].[K+].[K+] (stereo not drawn) [potassium (−)-hydroxycitrate]
- average weight loss ([12]; 3-4 grams of HCA per day in two divided doses, over the 3 week period): approximately 3 pounds per person per week
- tolerability ([12]; apart from inconvenience and poor taste): no other issues of tolerability
- hypoglycemic effect ([12]; immediate release format, diabetics, 3-4 grams of HCA per day): strong hypoglycemic effect in diabetics
- weight loss ([12]; one patient, over 10 weeks): 32 pounds
